The text below walks through data of ChEMBL document CHEMBL2434927, “Indenoindoles and cyclopentacarbazoles as bioactive compounds: synthesis and biological applications” (Eur J Med Chem, 2013).

One test addresses Casein kinase II (Homo sapiens, UniProt P19784+P67870+P68400). Description: Inhibition of human CK2. Format: protein-complex assay.
Test [1] is described as follows: Cytotoxicity against human LCLC cells assessed as growth inhibition. Format: functional.
For test [2], the target named is T1, NUAK family SNF1-like kinase 1 (Homo sapiens, UniProt O60285).
T1 sequence (O60285 whole entry): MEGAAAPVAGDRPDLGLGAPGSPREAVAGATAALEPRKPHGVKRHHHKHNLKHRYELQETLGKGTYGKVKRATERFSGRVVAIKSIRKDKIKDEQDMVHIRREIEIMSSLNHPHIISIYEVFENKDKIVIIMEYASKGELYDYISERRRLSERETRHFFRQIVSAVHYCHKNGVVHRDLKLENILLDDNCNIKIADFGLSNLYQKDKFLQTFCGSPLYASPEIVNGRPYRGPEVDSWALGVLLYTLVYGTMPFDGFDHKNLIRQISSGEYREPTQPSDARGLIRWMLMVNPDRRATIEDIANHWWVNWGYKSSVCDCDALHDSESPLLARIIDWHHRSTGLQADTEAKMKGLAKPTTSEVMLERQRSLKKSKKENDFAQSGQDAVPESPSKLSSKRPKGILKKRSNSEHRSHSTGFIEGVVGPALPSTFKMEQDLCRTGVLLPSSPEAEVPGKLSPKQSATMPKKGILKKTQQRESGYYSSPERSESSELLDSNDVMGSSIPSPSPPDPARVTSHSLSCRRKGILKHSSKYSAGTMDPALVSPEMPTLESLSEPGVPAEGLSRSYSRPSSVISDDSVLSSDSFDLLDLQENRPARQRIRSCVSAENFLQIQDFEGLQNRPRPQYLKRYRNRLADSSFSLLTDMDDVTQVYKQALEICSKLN
The experiment in a line: Inhibition of human ARK5.

The target of test [3] is T2, Receptor-type tyrosine-protein kinase FLT3 (Homo sapiens, UniProt P36888).
T2 sequence (P36888 whole entry): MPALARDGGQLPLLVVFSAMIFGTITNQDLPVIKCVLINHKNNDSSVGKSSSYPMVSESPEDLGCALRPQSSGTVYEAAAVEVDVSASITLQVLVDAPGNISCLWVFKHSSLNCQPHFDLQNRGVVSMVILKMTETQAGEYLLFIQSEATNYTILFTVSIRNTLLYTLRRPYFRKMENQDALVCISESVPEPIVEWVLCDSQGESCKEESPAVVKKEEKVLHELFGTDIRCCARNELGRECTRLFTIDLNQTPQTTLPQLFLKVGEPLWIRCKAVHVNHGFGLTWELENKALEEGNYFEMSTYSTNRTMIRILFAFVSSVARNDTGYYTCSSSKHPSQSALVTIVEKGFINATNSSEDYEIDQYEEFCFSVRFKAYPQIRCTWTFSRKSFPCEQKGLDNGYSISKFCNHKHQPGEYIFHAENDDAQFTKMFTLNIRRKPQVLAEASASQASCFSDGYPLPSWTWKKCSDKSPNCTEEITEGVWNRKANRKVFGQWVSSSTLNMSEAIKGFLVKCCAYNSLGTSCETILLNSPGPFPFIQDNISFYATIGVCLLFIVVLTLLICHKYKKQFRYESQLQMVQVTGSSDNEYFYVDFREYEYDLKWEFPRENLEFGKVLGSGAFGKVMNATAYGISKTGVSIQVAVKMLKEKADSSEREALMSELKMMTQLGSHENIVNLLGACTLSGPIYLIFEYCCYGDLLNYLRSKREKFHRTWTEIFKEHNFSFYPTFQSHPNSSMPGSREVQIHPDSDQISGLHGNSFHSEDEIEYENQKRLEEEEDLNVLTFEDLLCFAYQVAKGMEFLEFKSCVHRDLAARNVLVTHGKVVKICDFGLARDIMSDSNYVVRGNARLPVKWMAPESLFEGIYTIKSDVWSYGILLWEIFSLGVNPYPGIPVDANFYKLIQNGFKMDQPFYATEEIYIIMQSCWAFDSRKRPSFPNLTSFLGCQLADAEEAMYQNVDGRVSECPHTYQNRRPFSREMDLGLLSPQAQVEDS
The experiment in a line: Inhibition of human FLT3.

A further test deals with MCF7. Description: Cytotoxicity against human MCF7 cells assessed as growth inhibition. The class given is functional.
The next test deals with SISO. Description: Cytotoxicity against human SISO cells assessed as growth inhibition. Format: functional.
The subject of the next test is 5637. Description: Cytotoxicity against human 5637 cells assessed as growth inhibition. Format: functional.
Test [4] in a line: Cytotoxicity against human KYSE-70 cells assessed as growth inhibition. Format: functional.
Another test deals with A-427. Description: Cytotoxicity against human A427 cells assessed as growth inhibition. The class given is functional.
The next test concerns MC-38. The experiment in a line: Antitumor activity against mouse C38 cells allografted in B6D2F1 mouse assessed as tumor regression at 25 mg/kg, iv administered on days 10, 17 and 24 measured for 10 weeks relative to control. The class given is functional.

Sequence of Casein kinase II (P67870 whole entry): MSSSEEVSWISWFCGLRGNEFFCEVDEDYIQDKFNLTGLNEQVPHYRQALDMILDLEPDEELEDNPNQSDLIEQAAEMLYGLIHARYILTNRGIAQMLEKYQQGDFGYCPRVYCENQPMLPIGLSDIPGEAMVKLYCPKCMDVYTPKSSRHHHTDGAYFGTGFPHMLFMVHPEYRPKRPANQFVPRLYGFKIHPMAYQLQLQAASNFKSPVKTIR
Sequence of Casein kinase II (P68400 whole entry): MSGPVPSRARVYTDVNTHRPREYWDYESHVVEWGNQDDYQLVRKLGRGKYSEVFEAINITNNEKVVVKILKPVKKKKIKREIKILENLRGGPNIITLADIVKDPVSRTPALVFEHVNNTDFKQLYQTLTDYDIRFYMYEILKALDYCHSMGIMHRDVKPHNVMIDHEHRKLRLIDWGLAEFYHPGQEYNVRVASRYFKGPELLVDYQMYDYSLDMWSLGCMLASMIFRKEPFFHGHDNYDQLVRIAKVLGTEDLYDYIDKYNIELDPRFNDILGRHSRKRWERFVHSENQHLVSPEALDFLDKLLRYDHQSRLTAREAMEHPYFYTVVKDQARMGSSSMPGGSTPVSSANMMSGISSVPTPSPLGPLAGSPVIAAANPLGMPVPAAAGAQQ
Sequence of Casein kinase II (P19784 whole entry): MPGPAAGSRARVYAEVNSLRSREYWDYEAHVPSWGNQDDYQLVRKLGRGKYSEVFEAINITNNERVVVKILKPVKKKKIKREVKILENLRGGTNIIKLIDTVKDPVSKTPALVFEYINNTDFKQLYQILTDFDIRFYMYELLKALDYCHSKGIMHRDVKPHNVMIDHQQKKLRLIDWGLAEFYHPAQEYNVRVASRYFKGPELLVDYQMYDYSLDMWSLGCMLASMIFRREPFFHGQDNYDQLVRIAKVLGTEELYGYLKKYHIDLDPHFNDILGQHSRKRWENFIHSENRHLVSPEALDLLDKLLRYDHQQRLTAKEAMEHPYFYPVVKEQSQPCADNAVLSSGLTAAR

By IC50 is commonly meant the midpoint of a concentration-inhibition curve. On Casein kinase II, `O=c1ccc(=O)c2c1c1c(=O)c3ccccc3c1n2Cc1ccccc1` displayed an IC50 of 1490 nM.

For `CC(C)n1c2c(c3c1-c1ccccc1C3=O)C(=O)CCC2=O`, the GI (in test [1]; in the test on MCF7; in the test with SISO; in the test on 5637; in [4]; with A-427) was 1.3 µM throughout. Further, the concentration for half-maximal inhibition (IC50) amounted to 570 nM in [2] and 180 nM in [3].

On to `C#C[C@H](C)O/N=C1/c2cc(OC)c(OC)cc2-c2[nH]c3ccc(OCCN(C)C)cc3c21`, for which the Activity in the test with MC-38 worked out at 100%.
